According to patent US20070197559A1, “Aryl substituted purine analogues” (priority 2004, published 2007):

target: vanilloid receptor (VR) (Homo sapiens, UniProt Q8NER1); assay: not given; conditions: typical value, background; read-out: Ki value (binding to VR); cited from earlier work
Sequence (Q8NER1 whole entry): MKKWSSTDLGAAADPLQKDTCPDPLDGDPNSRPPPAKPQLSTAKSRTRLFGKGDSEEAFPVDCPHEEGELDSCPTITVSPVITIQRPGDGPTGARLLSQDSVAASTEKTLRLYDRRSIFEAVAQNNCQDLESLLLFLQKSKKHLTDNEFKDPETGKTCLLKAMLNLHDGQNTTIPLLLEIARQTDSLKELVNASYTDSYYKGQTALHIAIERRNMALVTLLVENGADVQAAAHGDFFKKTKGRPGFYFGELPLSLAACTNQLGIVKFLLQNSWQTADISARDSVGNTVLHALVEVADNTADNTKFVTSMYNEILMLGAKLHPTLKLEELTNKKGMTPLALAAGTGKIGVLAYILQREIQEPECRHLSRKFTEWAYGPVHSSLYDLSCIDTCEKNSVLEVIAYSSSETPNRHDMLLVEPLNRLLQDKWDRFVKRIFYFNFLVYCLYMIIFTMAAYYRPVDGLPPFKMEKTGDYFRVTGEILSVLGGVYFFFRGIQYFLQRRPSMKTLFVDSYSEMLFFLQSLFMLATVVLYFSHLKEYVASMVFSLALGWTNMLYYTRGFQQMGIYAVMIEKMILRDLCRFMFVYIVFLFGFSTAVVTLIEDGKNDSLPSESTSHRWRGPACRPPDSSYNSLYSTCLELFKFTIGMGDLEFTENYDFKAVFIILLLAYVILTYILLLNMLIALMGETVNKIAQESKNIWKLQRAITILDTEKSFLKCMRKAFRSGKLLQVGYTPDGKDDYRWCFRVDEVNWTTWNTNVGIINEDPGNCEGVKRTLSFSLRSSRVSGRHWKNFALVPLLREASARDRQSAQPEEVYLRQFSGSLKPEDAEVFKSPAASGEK

| Structure (SMILES) | Ki [nM] |
| --- | --- |
| Cl.Cl.Cl.Cl.Cl.Cl.N.N.N.N.N.N.N.N.N.N.N.N.N.N.[O-2].[O-2].[Ru+3].[Ru+3].[Ru+4] [ruthenium red] | ≥ 140000 |

target: T1, human capsaicin receptor (Homo sapiens, UniProt Q8NER1); assay: Calcium mobilization assay, determination of antagonist activity; type: cell-based; conditions: cells expressing human capsaicin receptor, capsaicin-induced fluorescence response, Example 6
T1 construct: transfected with the pBK-CMV expression construct encoding the full length human capsaicin receptor; expressed in transfected cells
T1 sequence (Q8NER1 whole entry): as above
Description: A cDNA encoding full length human capsaicin receptor (SEQ ID NO:1, 2 or 3 of U.S. Pat. No. 6,482,611) is subcloned in the plasmid pBK-CMV (Stratagene, La Jolla, Calif.) for recombinant expression in mammalian cells.
Human embryonic kidney (HEK293) cells are transfected with the pBK-CMV expression construct encoding the full length human capsaicin receptor using standard methods. The transfected cells are selected for two weeks in media containing G418 (400 μg/ml) to obtain a pool of stably transfected cells. Independent clones are isolated from this pool by limiting dilution to obtain clonal stable cell lines for use in subsequent experiments.
Cells transfected with expression plasmids (as described in Example 4) and thereby expressing human capsaicin receptor are seeded and grown to 70-90% confluency in FALCON black-walled, clear-bottomed 96-well plates (#3904, BECTON-DICKINSON, Franklin Lakes, N.J.). The culture medium is emptied from the 96 well plates and FLUO-3 AM calcium sensitive dye (Molecular Probes, Eugene, Oreg.) is added to each well (dye solution: 1 mg FLUO-3 AM, 440 μL DMSO and […] pluronic acid in DMSO, diluted 1:250 in Krebs-Ringer HEPES (KRH) buffer (25 mM HEPES, 5 mM KCl, 0.96 mM NaH2PO4, 1 mM MgSO4, 2 mM CaCl2, 5 mM glucose, 1 mM probenecid, pH 7.4), 50 μl diluted solution per well). Plates are covered with aluminum foil and incubated at 37° C. for 1-2 hours in an environment containing 5% CO2. After the incubation, the dye is emptied from the plates, and the cells are washed once with KRH buffer, and resuspended in KRH buffer.
To measure the ability of a test compound to agonize or antagonize a calcium mobilization response in cells expressing capsaicin receptors to capsaicin or other vanilloid agonist, the EC50 of the agonist capsaicin is first determined. An additional 20 μl of KRH buffer and 1 μl DMSO is added to each well of cells, prepared as described above. 100 μl capsaicin in KRH buffer is automatically transferred by the FLIPR instrument to each well. Capsaicin-induced calcium mobilization is monitored using either FLUOROSKAN ASCENT (Labsystems; Franklin, Mass.) or FLIPR (fluorometric imaging plate reader system; Molecular Devices, Sunnyvale, Calif.) instruments. Data obtained between 30 and 60 seconds after agonist application are used to generate an 8-point concentration response curve, with final capsaicin concentrations of 1 nM to 3 μM. KALEIDAGRAPH software (Synergy Software, Reading, Pa.) is used to fit the data to the equation: y=a*(1/(1+(b/x)^c)) to determine the 50% excitatory concentration (EC50) for the response. In this equation, y is the maximum fluorescence signal, x is the concentration of the agonist or antagonist (in this case, capsaicin), a is the Emax, b corresponds to the EC50 value and c is the Hill coefficient. Determination of Agonist Activity
Test compounds are dissolved in DMSO, diluted in 20 μl KRH buffer so that the final concentration of test compounds in the assay well is between 1 μM and 5 μM, and added to cells prepared as described above. The 96 well plates containing prepared cells and test compounds are incubated in the dark, at room temperature for 0.5 to 6 hours. It is important that the incubation not continue beyond 6 hours. Just prior to determining the fluorescence response, 100 μl capsaicin in KRH buffer at twice the EC50 concentration determined as described above is automatically added by the FLIPR instrument to each well of the 96 well plate for a final sample volume of 200 μl and a final capsaicin concentration equal to the EC50. The final concentration of test compounds in the assay wells is between 1 μM and 5 μM. […] The concentration of antagonist required to provide a 50% decrease, relative to the response observed in the presence of capsaicin and without antagonist, is the IC50 for the antagonist, and is preferably below 1 micromolar, 100 nanomolar, 10 nanomolar or 1 nanomolar.

| Structure (SMILES) | IC50 [nM] |
| --- | --- |
| CC(C)COCc1nc(Nc2ccc(C(C)(C)C#N)cc2)c2cnn(-c3ccccc3Cl)c2n1 [2-{4-[1-(2-Chloro-phenyl)-6-isobutoxymethyl-1H-pyrazolo[3,4-d]pyrimidin-4-ylamino]-phenyl}-2-methyl-propionitrile] | ≤ 1000 |
| CC(C)COCc1nc(Nc2ccc(C(C)(C)C)cc2)c2cnn(-c3ccccc3Cl)c2n1 [(4-tert-Butyl-phenyl)-[1-(2-chloro-phenyl)-6-isobutoxymethyl-1H-pyrazolo[3,4-d]pyrimidin-4-yl]-amine] | ≤ 1000 |
| CC(C)(C)c1ccc(Nc2ncnc3c2cnn3-c2ncccc2Cl)cc1 [(4-tert-Butyl-phenyl)-[1-(3-chloro-pyridin-2-yl)-1H-pyrazolo[3,4-d]pyrimidin-4-yl]-amine] | ≤ 1000 |
| C[C@@H]1CN(Cc2nc(Nc3ccc(C(F)(F)F)cc3)c3cnn(-c4ccccc4Cl)c3n2)C[C@H](C)O1 [[1-(2-Chloro-phenyl)-6-(2,6-dimethyl-morpholin-4-ylmethyl)-1H-pyrazolo[3,4-d]pyrimidin-4-yl]-(4-trifluoromethyl-phenyl)-amine] | ≤ 1000 |
| CC(C)COCc1nc(Nc2ccc(C(C)C)cc2)c2cnn(-c3ccccc3Cl)c2n1 [[1-(2-Chloro-phenyl)-6-isobutoxymethyl-1H-pyrazolo[3,4-d]pyrimidin-4-yl]-(4-isopropyl-phenyl)-amine] | ≤ 1000 |
| CC(C)COCc1nc(Nc2ccc(C(F)(F)F)cc2)c2cnn(-c3ccccc3Cl)c2n1 [[1-(2-Chloro-phenyl)-6-isobutoxymethyl-1H-pyrazolo[3,4-d]pyrimidin-4-yl]-(4-trifluoromethyl-phenyl)-amine] | ≤ 1000 |
| FC(F)(F)c1ccc(Nc2ncnc3c2ncn3Cc2ccccc2Cl)cc1 [[9-(2-Chloro-benzyl)-9H-purin-6-yl]-(4-trifluoromethyl-phenyl)-amine] | ≤ 1000 |

The next lines start with the values.

| IC50 [nM] | Structure (SMILES) |
| --- | --- |
| ≤ 1000 | CC(C)(C#N)c1ccc(Nc2ncnc3c2ncn3-c2cccc(Cl)c2)cc1 [2-{4-[9-(3-Chloro-phenyl)-9H-purin-6-ylamino]-phenyl}-2-methyl-propionitrile] |
| ≤ 1000 | N#Cc1ccc(Nc2ncnc3c2ncn3-c2cccc(Cl)c2)cc1 [4-[9-(3-Chloro-phenyl)-9H-purin-6-ylamino]-benzonitrile] |
| ≤ 1000 | Clc1ccc(Nc2ncnc3c2ncn3-c2cccc(Cl)c2)cc1 [(4-Chloro-phenyl)-[9-(3-chloro-phenyl)-9H-purin-6-yl]-amine] |
| ≤ 1000 | C[C@@H]1CN(Cc2nc(Nc3ccc(C(C)(C)C)cc3)c3cnn(-c4ccccc4Cl)c3n2)C[C@H](C)O1 [(4-tert-Butyl-phenyl)-[1-(2-chloro-phenyl)-6-(2,6-dimethyl-morpholin-4-ylmethyl)-1H-pyrazolo[3,4-d]pyrimidin-4-yl]-amine] |
| ≤ 1000 | CC(C)(C)c1ccc(Nc2ncnc3c2ncn3Cc2ccccc2Cl)cc1 [(4-tert-Butyl-phenyl)-[9-(2-chloro-benzyl)-9H-purin-6-yl]-amine] |
| ≤ 1000 | Cc1nc2c(Nc3ccc(C(C)(C)C)cc3)ncnc2n1-c1ccccc1Cl [(4-tert-Butyl-phenyl)-[9-(2-chloro-phenyl)-8-methyl-9H-purin-6-yl]amine] |
| ≤ 1000 | CC(C)(C)c1ccc(Nc2ncnc3c2ncn3-c2ccccc2Cl)cc1 [(4-tert-Butyl-phenyl)-[9-(2-chloro-phenyl)-9H-purin-6-yl]-amine] |
| ≤ 1000 | CC(C)(C)c1ccc(Nc2ncnc3c2ncn3-c2cccc(Cl)c2)cc1 [(4-tert-Butyl-phenyl)-[9-(3-chloro-phenyl)-9H-purin-6-yl]-amine] |
| ≤ 1000 | O=S(=O)(c1ccc(Nc2ncnc3c2cnn3-c2ccccc2Cl)cc1)C(F)(F)F [[1-(2-Chloro-phenyl)-1H-pyrazolo[3,4-d]pyrimidin-4-yl]-(4-trifluoromethanesulfonyl-phenyl)-amine] |
| ≤ 1000 | FC(F)(F)c1ccc(Nc2ncnc3c2cnn3-c2ncccc2Cl)cc1 [[1-(3-Chloro-pyridin-2-yl)-1H-pyrazolo[3,4-d]pyrimidin-4-yl]-(4-trifluoromethyl-phenyl)-amine] |
| ≤ 1000 | FC(F)(F)c1ccc(Nc2ncnc3c2ncn3-c2cccc(Cl)c2)cc1 [[9-(3-Chloro-phenyl)-9H-purin-6-yl]-(4-trifluoromethyl-phenyl)-amine] |
